Reference: patent publication US7563813B2, “Iminothiazolidinone derivatives as SFRP-1 antagonists” (Wyeth, priority 2005, dated 2009)

Molecular target: T1, hSFRP-1 (Homo sapiens, UniProt Q8N474)
T1 construct: expressed in transfected cells; host or cells: U2OS osteosarcoma cells (ATCC, HTB 96), transient co-transfection with Wnt 3, Wnt3A or Wnt 1, 16x TCF-tk-Luciferase reporter and CMV-beta-gal
T1 sequence (Q8N474 32-314): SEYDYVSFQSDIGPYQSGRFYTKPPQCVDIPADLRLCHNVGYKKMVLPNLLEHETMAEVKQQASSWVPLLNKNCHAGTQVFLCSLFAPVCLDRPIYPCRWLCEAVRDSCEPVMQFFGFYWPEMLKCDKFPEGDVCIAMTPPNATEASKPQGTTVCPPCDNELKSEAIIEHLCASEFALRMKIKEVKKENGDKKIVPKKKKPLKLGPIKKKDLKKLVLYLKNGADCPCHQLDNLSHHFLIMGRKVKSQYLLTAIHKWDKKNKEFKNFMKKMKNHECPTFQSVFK
Experiment: Cell-Based Assay for In Vitro Measurement of SFRP-1/SARP2 Antagonist Activity (U2OS cells, 16x TCF-tk-Luciferase reporter, Wnt + hSFRP-1 co-transfection)
Conditions: initial single dose screening at 10 μM; for Ratio: ratio not defined
Experimental: Cell-Based Assay for In Vitro Measurement of SFRP-1/SARP2 Antagonist Activity
The following cell-based assay can be used to identify inhibitors of SFRP-1.
The osteosarcoma cell line, U2OS (ATCC, HTB 96), was passaged twice a week with growth medium (McCoy's SA medium containing 10% (v/v) fetal calf serum, 2 mM GlutaMAX-1, and 1% (v/v) Penicillin-Streptomycin). The cells were maintained in vented flasks at 37° C. inside a 5% CO2/95% humidified air incubator. One day prior to transfection, the cells were plated with growth medium at 25,000 cells/well into 96-well plates and incubated at 37° C. overnight.
The growth medium was removed, and the cells were washed once with OPTIMEM I (Gibco-BRL) medium (100 μl/well) to remove the serum and antibiotics. The wash medium was removed, and the cells were re-fed with OPTI-MEM I medium (100 μl/well). For each well of cells to be transfected, the following DNA's were diluted together in 25 μl OPTI-MEM I medium: 0.1 μg 16× TCF-tk-Luciferase reporter, 0.02 μg Wnt 3, Wnt3A, Wnt 1 or empty vector (Upstate Biotechnology), 0.075 μg hSFRP-1 or empty vector (pcDNA3.1, Invitrogen), and 0.025 μg CMV-®gal (Clonetech). For each well of cells to be transfected, 1 μl of Lipofectamine 2000 reagent (Invitrogen) was diluted in 25 μl OPTI-MEM I medium and incubated at room temperature for 5 minutes. The diluted DNA's were then combined with the diluted Lipofectamine 2000 (LF2000), and the mixture was incubated at room temperature for 20 minutes. Fifty μl of the DNA-LF 2000 mixture was added to each well, and the plate(s) were incubated at 37° C. in a 5% CO2/95% humidified air incubator for 4 hours. The cells were washed once with 150 μl/well of experimental medium (phenol red-free RPMI Medium 1640 containing 2% fetal bovine serum, 2 mM GlutaMAX-1, and 1% Penicillin-Streptomycin). Finally, the cells were treated overnight at 37° C. with 200 μl/well of experimental medium containing either vehicle (typically DMSO) or diluted compound in replicates of 8 wells/compound.
Initial single dose screening of test compounds was done at 10 μM.
Dose-response experiments were initially performed with the compounds in log increases from 1-10,000 nM. From these dose-response curves, EC50 values were generated.
After treatment, the cells were washed twice with 150 μl/well of PBS without calcium or magnesium and were lysed with 50 μl/well of 1× cell culture lysis reagent (Promega Corporation) on a shaker at room temperature for 30 minutes. Thirty μl aliquots of the cell lysates were transferred to 96-well luminometer plates, and luciferase activity was measured in a MicroLumat PLUS luminometer (EG&G Berthold), or a Victor (PerkinElmer Life Sciences) using […] of luciferase substrate (Promega Corporation). Following the injection of substrate, luciferase activity was measured for 10 seconds after a 1.6 second delay. Similarly, 10 μl aliquots of the cell lysates were transferred to separate 96-well luminometer plates, and 50 μl of Galacton chemiluminescent substrate (Tropix) was added to each well. The plates were covered and incubated on a rotary shaker at room temperature for one hour. ®gal activity was measured in a MicroLumat PLUS luminometer or Victor using 100 μl/well of Light Emission Accelerator (Tropix). Following the injection of the accelerator, ®gal activity was measured for 10 seconds after a 1.6 second delay. The luciferase and ®gal activity data were transferred from the luminometer to a PC and analyzed using the SAS/Excel program. After the luciferase activity was normalized to ®gal, the SAS/Excel program was used to determine the mean and standard deviation of each treatment, to analyze the data for statistical significance, and to determine EC50 values.
As an alternative to co-transfection in a 96 well plate, the U2OS cells were transfected in T225 flasks and the transfected cells were frozen. The frozen cells were thawed and plated on a 96 well plate and the assay was carried out as detailed above. […]

[1] = luciferase reporter activity, fold induction over SFRP-1 control

Compound	fold induction at 10 µM [1]	Ratio	Fold induction with SFRP-1 [1] [fold]
N=C1NC(=O)C(CC(=O)Nc2cccc([N+](=O)[O-])c2)S1 (stereo not drawn) [Example 29, 2-(2-imino-4-oxo-1,3-thiazolidin-5-yl)-N-(3-nitrophenyl)acetamide]	1.7	1.4	–
CC(=O)c1cccc(NC(=O)CC2SC(=N)NC2=O)c1 (stereo not drawn) [Example 30, N-(3-acetylphenyl)-2-(2-imino-4-oxo-1,3-thiazolidin-5-yl)acetamide]	1.2	1.1	–
N=C1NC(=O)C(CC(=O)Nc2cccc(OC(F)(F)F)c2)S1 (stereo not drawn) [Example 31, 2-(2-imino-4-oxo-1,3-thiazolidin-5-yl)-N-[3-(trifluoromethoxy)phenyl]acetamide]	1.7	1.5	–
N=C1NC(=O)C(CC(=O)Nc2sc3c(c2C(N)=O)CCCC3)S1 (stereo not drawn) [Example 32, 2-{[(2-imino-4-oxo-1,3-thiazolidin-5-yl)acetyl]amino}-4,5,6,7-tetrahydro-1-benzothiophene-3-carboxamide]	1	1.1	–
CCOC(=O)c1c(NC(=O)CC2SC(=N)NC2=O)sc2c1CCCC2 (stereo not drawn) [Example 35, ethyl 2-{[(2-imino-4-oxo-1,3-thiazolidin-5-yl)acetyl]amino}-4,5,6,7-tetrahydro-1-benzothiophene-3-carboxylate]	1.4	1.6	–
CCOC(=O)c1c(NC(=O)CC2SC(=N)NC2=O)sc2c1CCCCC2 (stereo not drawn) [Example 36, ethyl 2-{[(2-imino-4-oxo-1,3-thiazolidin-5-yl)acetyl]amino}-5,6,7,8-tetrahydro-4H-cyclohepta[b]thiophene-3-carboxylate]	1.5	1.9	–
CCOC(=O)c1c(-c2ccccc2)csc1NC(=O)CC1SC(=N)NC1=O (stereo not drawn) [Example 45, ethyl 2-{[(2-imino-4-oxo-1,3-thiazolidin-5-yl)acetyl]amino}-4-phenyIthiophene-3-carboxylate]	–	1.0	1.1
CCOC(=O)c1c(-c2ccc(F)cc2)csc1NC(=O)CC1SC(=N)NC1=O (stereo not drawn) [Example 47, ethyl 4-(4-fluorophenyl)-2-{[(2-imino-4-oxo-1,3-thiazolidin-5-yl)acetyl]amino}thiophene-3-carboxylate]	1.1	1.0	–
CCOC(=O)c1c(NC(=O)CC2SC(=N)NC2=O)sc(C)c1-c1ccccc1 (stereo not drawn) [Example 48, ethyl 2-{[(2-imino-4-oxo-1,3-thiazolidin-5-yl)acetyl]amino}-5-methyl-4-phenylthiophene-3-carboxylate]	1.6	1.8	–
N#Cc1c(NC(=O)CC2SC(=N)NC2=O)sc2c1CCCC2 (stereo not drawn) [Example 49, N-(3-cyano-4,5,6,7-tetrahydro-1-benzothien-2-yl)-2-(2-imino-4-oxo-1,3-thiazolidin-5-yl)acetamide]	1.6	1.2	–
CC(C)(C)OC(=O)c1cc(-c2ccccc2)sc1NC(=O)CC1SC(=N)NC1=O (stereo not drawn) [Example 55, tert-butyl 2-{[(2-imino-4-oxo-1,3-thiazolidin-5-yl)acetyl]amino}-5-phenylthiophene-3-carboxylate]	1.2	0.9	–

More lines, now with the values ahead:

fold induction at 10 µM [1]	Ratio	Fold induction with SFRP-1 [1] [fold]	Compound
1.5	1.7	–	CCOC(=O)c1cc(CC)sc1NC(=O)CC1SC(=N)NC1=O (stereo not drawn) [Example 33, ethyl 5-ethyl-2-{[(2-imino-4-oxo-1,3-thiazolidin-5-yl)acetyl]amino}thiophene-3-carboxylate]
1.2	1.3	–	COC(=O)c1ccsc1NC(=O)CC1SC(=N)NC1=O (stereo not drawn) [Example 34, methyl 2-{[(2-imino-4-oxo-1,3-thiazolidin-5-yl)acetyl]amino}thiophene-3-carboxylate]
1.5	1.7	–	COC(=O)c1c(NC(=O)CC2SC(=N)NC2=O)sc2c1CCC(OC)C2 (stereo not drawn) [Example 37, methyl 2-{[(2-imino-4-oxo-1,3-thiazolidin-5-yl)acetyl]amino}-6-methoxy-4,5,6,7-tetrahydro-1-benzothiophene-3-carboxylate]
1.3	1.4	–	COC(=O)c1c(NC(=O)CC2SC(=N)NC2=O)sc2c1CCCC2 (stereo not drawn) [Example 38, methyl 2-{[(2-imino-4-oxo-1,3-thiazolidin-5-yl)acetyl]amino}-4,5,6,7-tetrahydro-1-benzothiophene-3-carboxylate]
1.5	1.7	–	COC(=O)c1sc(C(C)(C)C)cc1NC(=O)CC1SC(=N)NC1=O (stereo not drawn) [Example 42, methyl 5-tert-butyl-3-{[(2-imino-4-oxo-1,3-thiazolidin-5-yl)acetyl]amino}thiophene-2-carboxylate]
1	1.0	–	COC(=O)c1scc(C)c1NC(=O)CC1SC(=N)NC1=O (stereo not drawn) [Example 43, methyl 3-{[(2-imino-4-oxo-1,3-thiazolidin-5-yl)acetyl]amino}-4-methylthiophene-2-carboxylate]
1.6	1.5	–	CCOC(=O)c1c(NC(=O)CC2SC(=N)NC2=O)sc2c1CCC2 (stereo not drawn) [Example 44, ethyl 2-{[(2-imino-4-oxo-1,3-thiazolidin-5-yl)acetyl]amino}-5,6-dihydro-4H-cyclopenta[b]thiophene-3-carboxylate]
1.1	1.0	–	CCOC(=O)c1c(-c2ccco2)csc1NC(=O)CC1SC(=N)NC1=O (stereo not drawn) [Example 46, ethyl 4-(2-furyl)-2-{[(2-imino-4-oxo-1,3-thiazolidin-5-yl)acetyl]amino}thiophene-3-carboxylate]
1.1	1.0	–	COC(=O)c1ccccc1NC(=O)CC1SC(=N)NC1=O (stereo not drawn) [Example 50, methyl 2-{[(2-imino-4-oxo-1,3-thiazolidin-5-yl)acetyl]amino}benzoate]
1.1	1.1	–	CCOC(=O)c1ccccc1NC(=O)CC1SC(=N)NC1=O (stereo not drawn) [Example 51, ethyl 2-{[(2-imino-4-oxo-1,3-thiazolidin-5-yl)acetyl]amino}benzoate]
1.1	1.1	–	COC(=O)c1cc(Cl)ccc1NC(=O)CC1SC(=N)NC1=O (stereo not drawn) [Example 52, methyl 5-chloro-2-{[(2-imino-4-oxo-1,3-thiazolidin-5-yl)acetyl]amino}benzoate]
1	1.0	–	COC(=O)c1cc(OC)c(OC)cc1NC(=O)CC1SC(=N)NC1=O (stereo not drawn) [Example 53, methyl 2-{[(2-imino-4-oxo-1,3-thiazolidin-5-yl)acetyl]amino}-4,5-dimethoxybenzoate]
2.6	2.6	–	CCOC(=O)c1c(NC(=O)CC2SC(=N)NC2=O)sc(Br)c1C (stereo not drawn) [Example 54, Ethyl 5-bromo-2-{[(2-imino-4-oxo-1,3-thiazolidin-5-yl)acetyl]amino}-4-methylthiophene-3-carboxylate]
